Results taken from PubChem BioAssay AID330 (DTP/NCI, 2004).
Where “and” joins values, the source holds several entries; their conditions need not be identical. Equal values may be shown once. Inconclusive results and toxic doses are left out. How the source made its calls: active means survival T/C of 150% or more; inactive means T/C below 125% in these data.

Tested on: P388 leukemia ip, CD2F1 mice, survival T/C
Assay: NCI In Vivo Anticancer Drug Screen. Data for tumor model P388 Leukemia (intraperitoneal) in CD2F1 (CDF1) mice
Conditions: endpoint: median survival time, higher = longer survival
In short: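 Mice carrying the transplanted tumor received test compound or vehicle. Survival was recorded in each group, and the value is the treated-group measurement divided by that of the vehicle-treated control group.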

[1] = dose: 100.0 mg/kg/injection, schedule: Q04DX002 (ip), vehicle: saline with Tween-80
[2] = dose: 50.0 mg/kg/injection, schedule: Q01DX009 (ip), vehicle: saline with Tween-80
[3] = dose: 50.0 mg/kg/injection, schedule: Q01DX005 (ip), vehicle: saline with Tween-80
[4] = dose: 100.0 mg/kg/injection, schedule: Q01DX009 (ip), vehicle: saline with Tween-80
[5] = dose: 200.0 mg/kg/injection, schedule: Q01DX009 (ip), vehicle: saline with Tween-80
[6] = dose: 400.0 mg/kg/injection, schedule: Q01DX009 (ip), vehicle: saline with Tween-80
[7] = dose: 25.0 mg/kg/injection, schedule: Q01DX009 (ip), vehicle: other
[8] = dose: 50.0 mg/kg/injection, schedule: Q01DX009 (ip), vehicle: other
[9] = dose: 100.0 mg/kg/injection, schedule: Q01DX009 (ip), vehicle: other
[10] = dose: 200.0 mg/kg/injection, schedule: Q01DX009 (ip), vehicle: other
[11] = dose: 400.0 mg/kg/injection, schedule: Q01DX009 (ip), vehicle: other
[12] = dose: 60.0 mg/kg/injection, schedule: Q01DX005 (ip), vehicle: Klucel (hydroxypropylcellulose) (HPC)
[13] = dose: 120.0 mg/kg/injection, schedule: Q01DX005 (ip), vehicle: Klucel (hydroxypropylcellulose) (HPC)

Measured: T/C

O=C(N/C(=C\c1nc2ccccc2s1)c1ccccc1O)c1ccccc1
inactive: [1] 104 % of control | dose: 200.0 mg/kg/injection, schedule: Q04DX002 (ip), vehicle: saline with Tween-80 99 % of control | dose: 400.0 mg/kg/injection, schedule: Q04DX002 (ip), vehicle: saline with Tween-80 103 % of control

CC1CCC2C(C)C(=O)OC2C2(C)C(=O)C=CC12 (stereo not given)
inactive: dose: 12.5 mg/kg/injection, schedule: Q01DX009 (ip), vehicle: saline with Tween-80 103 % of control | dose: 25.0 mg/kg/injection, schedule: Q01DX009 (ip), vehicle: saline with Tween-80 113 % of control | [2] 110 % of control

CCN(CC)CCCC(C)Nc1cc(O)c2c(c1O)C(=O)c1ccccc1C2=O (stereo not given)
inactive: [3] 102 % of control | dose: 100.0 mg/kg/injection, schedule: Q01DX005 (ip), vehicle: saline with Tween-80 98 % of control | dose: 200.0 mg/kg/injection, schedule: Q01DX005 (ip), vehicle: saline with Tween-80 111 % of control

O=S(=O)(O)CC(O)CN1CCN(CCO)CC1 (stereo not given)
inactive: dose: 60.0 mg/kg/injection, schedule: Q01DX005 (ip), vehicle: saline 100 % of control | dose: 120.0 mg/kg/injection, schedule: Q01DX005 (ip), vehicle: saline 100 % of control | dose: 240.0 mg/kg/injection, schedule: Q01DX005 (ip), vehicle: saline 98 % of control

CCCn1c2ccccc2c2ccccc21
inactive: dose: 100.0 mg/kg/injection, schedule: Q04DX003 (ip), vehicle: Klucel (hydroxypropylcellulose) (HPC) 104 % of control | dose: 200.0 mg/kg/injection, schedule: Q04DX003 (ip), vehicle: Klucel (hydroxypropylcellulose) (HPC) 104 % of control | dose: 400.0 mg/kg/injection, schedule: Q04DX003 (ip), vehicle: Klucel (hydroxypropylcellulose) (HPC) 100 % of control

CCC(=O)Nc1ccc(Br)cc1
inactive: [2] 102 % of control | [4] 94 % of control | [5] 96 % of control | [6] 96 % of control

COC(=O)c1ncn(Cc2ccccc2)c1N
inactive: dose: 25.0 mg/kg/injection, schedule: Q04DX002 (ip), vehicle: saline with Tween-80 101 % of control | dose: 50.0 mg/kg/injection, schedule: Q04DX002 (ip), vehicle: saline with Tween-80 91 % of control | [1] 104 % of control and 93 % of control

C/C=C(\C)C(=O)OC1C(C)C2(O)C(C=C(CO)CC3(O)C(=O)C(C)=CC32)C2C(C)(C)C12OC(=O)CCCCCCCCC (stereo not given)
inactive: dose: 0.13 mg/kg/injection, schedule: Q01DX009 (ip), vehicle: saline + alcohol 124 % of control | dose: 0.5 mg/kg/injection, schedule: Q01DX009 (ip), vehicle: saline + alcohol 124 % of control

C1C[N-]CC[N-]CC[N-]CC[N-]1.[Cl][Rh][Cl]
inactive: dose: 0.66 mg/kg/injection, schedule: Q01DX009 (ip), vehicle: saline 117 % of control | dose: 1.0 mg/kg/injection, schedule: Q01DX009 (ip), vehicle: saline 115 % of control | dose: 1.5 mg/kg/injection, schedule: Q01DX009 (ip), vehicle: saline 115 % of control | dose: 2.25 mg/kg/injection, schedule: Q01DX009 (ip), vehicle: saline 108 % of control | dose: 3.13 mg/kg/injection, schedule: Q01DX009 (ip), vehicle: saline 121 % of control | dose: 6.25 mg/kg/injection, schedule: Q01DX009 (ip), vehicle: saline 116 % of control | dose: 12.5 mg/kg/injection, schedule: Q01DX009 (ip), vehicle: saline 108 % of control

C/C=C/COCC
inactive: dose: 100.0 mg/kg/injection, schedule: Q04DX003 (ip), vehicle: saline with Tween-80 101 % of control | dose: 200.0 mg/kg/injection, schedule: Q04DX003 (ip), vehicle: saline with Tween-80 106 % of control | dose: 400.0 mg/kg/injection, schedule: Q04DX003 (ip), vehicle: saline with Tween-80 108 % of control

COc1ccc(Br)c(C(=O)O)c1OS(=O)(=O)c1ccc(C)cc1
inactive: [7] 106 % of control | [8] 105 % of control | [9] 100 % of control | [10] 105 % of control | [11] 108 % of control

Oc1ccc(C2(c3ccc(O)cc3)C3CC4CC(C3)CC2C4)cc1
inactive: dose: 50.0 mg/kg/injection, schedule: Q01DX009 (ip), vehicle: Klucel (hydroxypropylcellulose) (HPC) 104 % of control | dose: 100.0 mg/kg/injection, schedule: Q01DX009 (ip), vehicle: Klucel (hydroxypropylcellulose) (HPC) 103 % of control | dose: 200.0 mg/kg/injection, schedule: Q01DX009 (ip), vehicle: Klucel (hydroxypropylcellulose) (HPC) 100 % of control

N[N+]1(CCS(N)(=O)=O)CCOCC1
inactive: dose: 50.0 mg/kg/injection, schedule: Q01DX009 (ip), vehicle: saline 110 % of control | dose: 100.0 mg/kg/injection, schedule: Q01DX009 (ip), vehicle: saline 91 % of control | dose: 200.0 mg/kg/injection, schedule: Q01DX009 (ip), vehicle: saline 96 % of control

O=c1cnn(C2OC(CO)C(O)C2Cl)c(=O)[nH]1 (stereo not given)
inactive: dose: 4.06 mg/kg/injection, schedule: Q01DX009 (ip), vehicle: saline 99 % of control | dose: 8.12 mg/kg/injection, schedule: Q01DX009 (ip), vehicle: saline 108 % of control | dose: 16.25 mg/kg/injection, schedule: Q01DX009 (ip), vehicle: saline 101 % of control | dose: 32.5 mg/kg/injection, schedule: Q01DX009 (ip), vehicle: saline 101 % of control | dose: 65.0 mg/kg/injection, schedule: Q01DX009 (ip), vehicle: saline 106 % of control | dose: 130.0 mg/kg/injection, schedule: Q01DX009 (ip), vehicle: saline 102 % of control

COC(=O)C1=C(N)N2C/C(=C/c3cccs3)SC2=C(C(=O)OC)C1c1cccs1 (stereo not given)
inactive: dose: 12.5 mg/kg/injection, schedule: Q01DX005 (ip), vehicle: saline with Tween-80 96 % of control | dose: 25.0 mg/kg/injection, schedule: Q01DX005 (ip), vehicle: saline with Tween-80 91 % of control | [3] 86 % of control and 91 % of control

CCO/C=C1/N=C(Cc2ccc(Br)cc2)OC1=O
inactive: dose: 60.0 mg/kg/injection, schedule: Q01DX005 (ip), vehicle: saline with Tween-80 94 % of control | dose: 120.0 mg/kg/injection, schedule: Q01DX005 (ip), vehicle: saline with Tween-80 90 % of control

O=C(c1cc2c(cc1Br)OCO2)N1CCCc2ccccc21
inactive: [7] 100 % of control | [8] 97 % of control | [9] 102 % of control | [10] 97 % of control | [11] 93 % of control

O=C1CC2CCCCC2CC1c1ccc(OCc2ccccc2)c(OCc2ccccc2)c1 (stereo not given)
inactive: [2] 91 % of control | [4] 97 % of control | [5] 103 % of control

CC(=Nc1ccc(Cl)cc1N)c1c(O)cc(C)oc1=O
inactive: [12] 91 % of control | [13] 96 % of control

CCCCCC(=O)/C=C/C1=C(N2CCCC2)CN(C(=O)OCC)C1
inactive: [12] 86 % of control | [13] 89 % of control | dose: 240.0 mg/kg/injection, schedule: Q01DX005 (ip), vehicle: Klucel (hydroxypropylcellulose) (HPC) 91 % of control

O=c1[nH]c(=S)[nH]c2c1CN(CCCN1CCN(CCCN3CNc4[nH]c(=S)[nH]c(=O)c4C3)CC1)CN2
inactive: dose: 50.0 mg/kg/injection, schedule: Q01DX005 (ip), vehicle: Klucel (hydroxypropylcellulose) (HPC) 96 % of control | dose: 100.0 mg/kg/injection, schedule: Q01DX005 (ip), vehicle: Klucel (hydroxypropylcellulose) (HPC) 94 % of control | dose: 200.0 mg/kg/injection, schedule: Q01DX005 (ip), vehicle: Klucel (hydroxypropylcellulose) (HPC) 95 % of control

COc1ccc(/C(C)=C\C(=O)O)cc1
inactive: [4] 90 % of control | [5] 100 % of control | [6] 100 % of control
